Measurements published in ChEMBL document CHEMBL1201862, “PubChem BioAssay data set” (2004).
Calls of active or inactive are those of the source.

Columns and labels:
[1] = biological target: T1, Zinc finger protein mex-5 (Caenorhabditis elegans, UniProt Q9XUB2); experiment: potency of MEX-5 RNA-binding blockers – biochemical, C. elegans, fluorescence polarization, dose response (AID 1960)
T1 sequence (Q9XUB2 whole entry): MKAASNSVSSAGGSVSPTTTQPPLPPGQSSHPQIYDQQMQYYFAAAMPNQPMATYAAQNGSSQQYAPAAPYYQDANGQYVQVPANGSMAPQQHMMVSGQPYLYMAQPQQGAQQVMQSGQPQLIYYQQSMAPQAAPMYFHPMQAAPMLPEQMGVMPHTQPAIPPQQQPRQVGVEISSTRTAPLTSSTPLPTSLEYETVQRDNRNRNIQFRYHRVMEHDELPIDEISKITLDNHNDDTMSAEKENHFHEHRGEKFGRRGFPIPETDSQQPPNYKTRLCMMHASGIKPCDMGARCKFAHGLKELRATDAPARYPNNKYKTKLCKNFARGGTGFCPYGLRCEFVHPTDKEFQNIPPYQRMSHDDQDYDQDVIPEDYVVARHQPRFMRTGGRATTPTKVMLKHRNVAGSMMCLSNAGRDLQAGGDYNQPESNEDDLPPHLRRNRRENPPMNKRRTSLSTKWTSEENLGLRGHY

[2] = biological target: T2, RNA-binding protein pos-1 (Caenorhabditis elegans, UniProt G5EF15); experiment: disruptors of C. elegans POS-1 RNA interaction – biochemical, fluorescence polarization, dose response (AID 1964);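 further: purified POS-1 fused to maltose binding protein made in E. coli; potency of compounds blocking POS-1 binding to fluorescent RNA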
T2 sequence (G5EF15 whole entry): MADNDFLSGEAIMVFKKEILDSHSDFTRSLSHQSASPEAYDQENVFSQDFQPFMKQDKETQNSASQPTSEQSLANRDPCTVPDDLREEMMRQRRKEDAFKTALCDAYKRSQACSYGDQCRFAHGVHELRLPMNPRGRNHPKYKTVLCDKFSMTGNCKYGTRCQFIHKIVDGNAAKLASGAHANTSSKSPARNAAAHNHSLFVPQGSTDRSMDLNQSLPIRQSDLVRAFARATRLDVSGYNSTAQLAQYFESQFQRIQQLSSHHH

[3] = biological target: Cytochrome P450 3A4 (Homo sapiens, UniProt P08684);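 further: CYP3A4 tested as one member of a cytochrome P450 panel screen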
[4] = biological target: FAD-linked sulfhydryl oxidase ALR (Homo sapiens, UniProt P55789); experiment: ALR-catalysed DTT oxidation blockers – biochemical, H2O2 detection, luminescence, cherry-pick, dose response (AID 493248)
[5] = biological target: T3, Rac GTPase-activating protein 1 (Homo sapiens, UniProt Q9H0H5); experiment: blockers of MgcRacGAP-driven Rac1 GTP hydrolysis – biochemical, ADP Hunter fluorescence, primary and confirmatory, confirmation (AID 624330); format: functional
T3 sequence (Q9H0H5 whole entry): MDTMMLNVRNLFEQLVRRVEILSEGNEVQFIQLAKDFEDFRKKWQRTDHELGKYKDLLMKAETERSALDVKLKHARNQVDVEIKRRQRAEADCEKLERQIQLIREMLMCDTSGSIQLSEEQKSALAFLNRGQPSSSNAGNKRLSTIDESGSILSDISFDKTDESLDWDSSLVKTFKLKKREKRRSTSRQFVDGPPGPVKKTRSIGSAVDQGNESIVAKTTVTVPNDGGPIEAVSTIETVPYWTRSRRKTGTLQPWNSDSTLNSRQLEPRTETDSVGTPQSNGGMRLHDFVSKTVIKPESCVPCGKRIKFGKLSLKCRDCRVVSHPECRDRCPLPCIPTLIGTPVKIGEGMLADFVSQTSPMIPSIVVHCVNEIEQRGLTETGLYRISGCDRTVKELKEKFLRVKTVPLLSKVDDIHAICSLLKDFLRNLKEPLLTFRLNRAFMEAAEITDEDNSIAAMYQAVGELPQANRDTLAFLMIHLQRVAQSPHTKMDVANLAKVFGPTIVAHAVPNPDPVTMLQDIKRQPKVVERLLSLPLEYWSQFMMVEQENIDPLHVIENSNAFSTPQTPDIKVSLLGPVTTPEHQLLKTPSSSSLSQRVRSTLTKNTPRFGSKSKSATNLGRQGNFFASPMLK

[6] = biological target: T4, Ubiquitin-conjugating enzyme E2 N (Homo sapiens, UniProt P61088); format: functional;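 further: Dose-response confirmation in a TR-FRET assay detecting UBC13-driven polyubiquitin chain formation, inhibition measured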
T4 sequence (P61088 whole entry): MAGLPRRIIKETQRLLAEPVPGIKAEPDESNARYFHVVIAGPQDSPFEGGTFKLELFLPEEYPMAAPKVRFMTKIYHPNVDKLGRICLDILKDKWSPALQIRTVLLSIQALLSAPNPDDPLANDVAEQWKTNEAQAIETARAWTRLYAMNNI

[7] = luciferase reporter signal suppression in cells – H4 neuroglioma cells, luminescence, dose response (AID 1990); format: functional, cell-based
[8] = biological target: T5, Protein RecA (Mycobacterium tuberculosis, UniProt P9WHJ3); experiment: Fluorescence Cell-Free Homogeneous Dose Retest to Identify Inhibitors of RecA-Intein Splicing Activity. [Related pubchem assays (depositor defined):AID2097, AID2223, AID489010, AID492950]; format: functional
T5 sequence (P9WHJ3 whole entry): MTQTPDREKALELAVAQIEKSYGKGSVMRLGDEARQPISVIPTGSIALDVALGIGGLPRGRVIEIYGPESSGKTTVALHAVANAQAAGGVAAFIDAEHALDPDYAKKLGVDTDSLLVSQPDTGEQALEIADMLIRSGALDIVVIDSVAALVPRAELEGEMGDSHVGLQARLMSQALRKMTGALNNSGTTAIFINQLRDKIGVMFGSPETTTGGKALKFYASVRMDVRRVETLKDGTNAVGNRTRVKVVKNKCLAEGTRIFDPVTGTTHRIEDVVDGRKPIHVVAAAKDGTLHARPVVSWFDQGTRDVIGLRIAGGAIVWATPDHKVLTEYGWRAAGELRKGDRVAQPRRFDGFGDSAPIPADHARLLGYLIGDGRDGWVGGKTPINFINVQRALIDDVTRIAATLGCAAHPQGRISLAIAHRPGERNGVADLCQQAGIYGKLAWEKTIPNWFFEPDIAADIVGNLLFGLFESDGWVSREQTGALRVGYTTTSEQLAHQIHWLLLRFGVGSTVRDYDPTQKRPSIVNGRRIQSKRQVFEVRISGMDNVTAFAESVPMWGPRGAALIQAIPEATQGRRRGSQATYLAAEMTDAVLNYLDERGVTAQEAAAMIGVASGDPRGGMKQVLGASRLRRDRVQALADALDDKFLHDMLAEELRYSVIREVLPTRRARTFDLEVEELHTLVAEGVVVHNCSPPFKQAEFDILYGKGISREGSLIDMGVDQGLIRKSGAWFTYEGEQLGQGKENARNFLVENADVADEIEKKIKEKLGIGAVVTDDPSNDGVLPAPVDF

[9] = biological target: T6, Replicative DNA helicase DnaB (Mycobacterium tuberculosis, UniProt P9WMR3); experiment: DnaB intein splicing inhibitors, dose response, biochemical, cell-free fluorescence (AID 449749); format: functional
T6 sequence (P9WMR3 whole entry): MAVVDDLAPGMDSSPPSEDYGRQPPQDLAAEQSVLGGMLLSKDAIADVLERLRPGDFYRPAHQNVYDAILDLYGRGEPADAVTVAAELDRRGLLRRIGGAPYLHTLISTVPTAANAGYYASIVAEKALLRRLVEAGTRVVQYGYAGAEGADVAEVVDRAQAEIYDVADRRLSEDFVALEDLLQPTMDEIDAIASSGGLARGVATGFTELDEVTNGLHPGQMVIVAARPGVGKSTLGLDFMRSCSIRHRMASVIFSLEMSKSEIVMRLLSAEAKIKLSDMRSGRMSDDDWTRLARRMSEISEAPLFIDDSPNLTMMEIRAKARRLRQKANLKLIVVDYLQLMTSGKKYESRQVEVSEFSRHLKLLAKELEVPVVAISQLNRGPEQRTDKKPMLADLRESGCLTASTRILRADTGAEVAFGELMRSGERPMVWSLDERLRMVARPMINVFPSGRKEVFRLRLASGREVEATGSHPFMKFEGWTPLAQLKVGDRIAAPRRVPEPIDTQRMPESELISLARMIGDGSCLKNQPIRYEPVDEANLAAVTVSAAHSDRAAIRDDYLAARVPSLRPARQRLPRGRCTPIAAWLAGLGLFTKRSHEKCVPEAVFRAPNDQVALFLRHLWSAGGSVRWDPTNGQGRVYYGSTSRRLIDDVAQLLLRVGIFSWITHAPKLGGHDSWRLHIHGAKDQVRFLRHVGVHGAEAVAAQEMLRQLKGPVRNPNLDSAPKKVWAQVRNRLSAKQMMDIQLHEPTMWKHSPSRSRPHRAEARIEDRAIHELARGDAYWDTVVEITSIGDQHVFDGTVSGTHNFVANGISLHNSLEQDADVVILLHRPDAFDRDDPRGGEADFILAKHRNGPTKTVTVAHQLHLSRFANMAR

[10] = alpha-synuclein stem-loop luciferase translation blockers – H4 neuroglioma cells, luminescence, confirmation (AID 1988); format: functional, cell-based
[11] = Luminescence Cell-Based Dose Response HTS to Identify Inhibitors of 5'UTR Stem-Loop Driven Prion Protein mRNA Translation in H4 Neuroglioblastoma Cells. [Related pubchem assays: 1827 (Project Summary), 1813 (Primary HTS)]; format: functional
[12] = biological target: Large T antigen (Simian virus 40, UniProt P03070); format: functional, Betapolyomavirus macacae;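 further: Confirmatory-stage PubChem screen for compounds that inhibit SV40 T antigen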
[13] = Trypanosoma cruzi growth suppression in host cells – NIH3T3 host cells, beta-gal luminescence, confirmation (AID 2044); format: functional, cell-based;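 further: intracellular parasites grown in NIH/3T3 mouse fibroblasts as host cells; luminescent beta-galactosidase reporter signal from transgenic T. cruzi replicating inside host cells; inhibitors lower the luminescence signal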
[14] = NIH3T3 cell viability loss – ATP luminescence, mouse fibroblasts, counter-screen, dose response (AID 2010); format: functional, cell-based;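 further: cells exposed to compound for about 90 hours before reading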
[15] = cells; format: functional
[16] = biological target: T7, Polyadenylate-binding protein 1 (Homo sapiens, UniProt P11940); experiment: MLLE domain peptide-binding blockers, IC50 – biochemical, fluorescence polarization, FITC-PAM2 peptide, dose response (AID 602259); format: functional; details: read-out: IC50_Mean
[17] = test system: INS1; experiment: INS-1E survival protection against cytokine death – cell-based, luminescence, retest, dose response (AID 449756); format: functional; details: Rattus norvegicus;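 further: cell death triggered by IL-1 beta plus TNF-alpha plus IFN-gamma mixture; protective hits raise ATP signal compared with cytokine alone wells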
[18] = biological target: T7, Polyadenylate-binding protein 1; experiment: MLLE binding blockers, Cy5 peptide tracer – biochemical, fluorescence polarization, Cy5-PAM2 peptide, secondary, miRNA deadenylation inhibitor project, dose response (AID 602260); format: functional; details: read-out: IC50_Mean

Large T antigen, sequence (P03070 whole entry): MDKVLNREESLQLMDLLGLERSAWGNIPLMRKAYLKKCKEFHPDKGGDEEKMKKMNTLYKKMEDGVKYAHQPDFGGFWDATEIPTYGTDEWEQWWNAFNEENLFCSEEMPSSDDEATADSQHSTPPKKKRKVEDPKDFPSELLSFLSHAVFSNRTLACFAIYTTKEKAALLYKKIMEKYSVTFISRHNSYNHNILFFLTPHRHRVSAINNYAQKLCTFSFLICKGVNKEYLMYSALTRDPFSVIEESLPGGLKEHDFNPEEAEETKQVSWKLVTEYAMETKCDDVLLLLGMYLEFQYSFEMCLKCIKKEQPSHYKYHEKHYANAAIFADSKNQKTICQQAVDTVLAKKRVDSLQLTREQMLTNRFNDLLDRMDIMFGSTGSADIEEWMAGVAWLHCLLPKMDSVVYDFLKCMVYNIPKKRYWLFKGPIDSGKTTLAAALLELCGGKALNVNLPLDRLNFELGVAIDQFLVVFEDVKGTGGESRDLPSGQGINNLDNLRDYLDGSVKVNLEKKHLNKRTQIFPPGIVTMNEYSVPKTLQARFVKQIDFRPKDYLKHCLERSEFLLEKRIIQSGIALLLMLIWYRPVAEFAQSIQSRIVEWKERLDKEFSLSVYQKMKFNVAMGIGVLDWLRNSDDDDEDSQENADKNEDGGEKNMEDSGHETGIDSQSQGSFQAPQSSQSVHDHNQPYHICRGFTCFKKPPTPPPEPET
FAD-linked sulfhydryl oxidase ALR, sequence (P55789 whole entry): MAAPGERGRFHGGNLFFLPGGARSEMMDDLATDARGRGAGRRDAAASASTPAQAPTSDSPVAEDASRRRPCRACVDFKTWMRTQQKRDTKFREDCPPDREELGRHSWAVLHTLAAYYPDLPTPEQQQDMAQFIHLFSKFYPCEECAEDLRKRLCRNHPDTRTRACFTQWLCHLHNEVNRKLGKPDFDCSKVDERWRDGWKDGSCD
T7 sequence (P11940 whole entry, the tested form may be a part): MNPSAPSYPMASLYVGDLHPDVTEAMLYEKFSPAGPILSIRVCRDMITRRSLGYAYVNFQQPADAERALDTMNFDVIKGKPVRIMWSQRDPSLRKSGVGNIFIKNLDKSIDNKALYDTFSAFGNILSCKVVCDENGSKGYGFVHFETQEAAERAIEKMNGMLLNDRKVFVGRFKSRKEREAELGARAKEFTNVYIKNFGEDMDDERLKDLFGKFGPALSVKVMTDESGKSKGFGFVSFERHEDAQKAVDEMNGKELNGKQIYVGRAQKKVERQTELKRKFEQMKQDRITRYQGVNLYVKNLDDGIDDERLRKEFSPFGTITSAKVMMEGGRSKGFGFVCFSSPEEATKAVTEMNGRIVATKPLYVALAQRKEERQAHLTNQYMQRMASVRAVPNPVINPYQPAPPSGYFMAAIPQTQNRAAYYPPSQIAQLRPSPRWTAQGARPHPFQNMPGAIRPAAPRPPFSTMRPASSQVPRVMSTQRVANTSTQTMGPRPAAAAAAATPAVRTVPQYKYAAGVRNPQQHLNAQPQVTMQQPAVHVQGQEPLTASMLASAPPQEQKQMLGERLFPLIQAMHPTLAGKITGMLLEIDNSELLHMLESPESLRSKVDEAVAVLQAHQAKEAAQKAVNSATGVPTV
Cytochrome P450 3A4, sequence (P08684 whole entry): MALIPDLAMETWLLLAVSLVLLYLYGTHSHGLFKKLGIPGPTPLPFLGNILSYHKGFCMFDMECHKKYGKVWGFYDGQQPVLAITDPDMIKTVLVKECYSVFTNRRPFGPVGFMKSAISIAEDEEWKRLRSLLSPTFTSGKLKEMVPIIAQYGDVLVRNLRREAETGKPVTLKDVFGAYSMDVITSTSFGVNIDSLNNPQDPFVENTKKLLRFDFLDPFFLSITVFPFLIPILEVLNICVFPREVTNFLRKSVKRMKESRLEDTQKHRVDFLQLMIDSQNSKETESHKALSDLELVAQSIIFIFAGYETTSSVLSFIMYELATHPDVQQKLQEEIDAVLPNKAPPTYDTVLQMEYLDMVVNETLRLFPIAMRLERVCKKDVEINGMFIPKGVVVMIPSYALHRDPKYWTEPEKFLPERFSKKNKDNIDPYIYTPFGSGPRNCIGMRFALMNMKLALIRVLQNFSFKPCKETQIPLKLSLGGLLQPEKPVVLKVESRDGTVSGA

## Cc1ccc(N2C(=O)/C(=C/c3ccc(CN(CCC#N)S(C)(=O)=O)o3)C(=O)NC2=S)cc1C
[1]
  EC50: 9.89 µM (active)
[2]
  EC50: 15.5 µM (active)
[3]
  AC50: 22.4 µM (inconclusive)

## CC(=O)Nc1ccc(S(=O)(=O)Nc2ccc(Nc3ccccc3)cc2)cc1
[4]
  AC50: 0.268 µM (active)
[5]
  IC50: 70.1 µM (active)

## CC(=O)Nc1ccc(Nc2nc3ccccc3nc2NS(=O)(=O)c2ccccc2)cc1
[4]
  AC50: 0.13 µM (active)

## C=CCn1c(SCc2ccc(Cl)cc2)nc2cc(C(=O)N3CCC(C(N)=O)CC3)ccc2c1=O
[6]
  IC50: > 20 µM (inactive)

## CCN(CC)C(=O)CSc1nnc2nnc3cc(OC)ccc3n12
[1]
  EC50: 5.43 µM (active)
[7]
  EC50: 14.9 µM (active)
[2]
  EC50: 7.7 µM (active)
[8]
  EC50: 128 µM (active)
[9]
  AC50: > 380 µM (inactive)
[10]
  EC50: 10.8 µM (active)
[11]
  EC50: > 120 µM (not active)

## CC1CN(S(=O)(=O)c2cccc(C(=O)N(Cc3nnc(-c4ccccc4Cl)o3)C3CC3)c2)CC(C)O1 (centres undefined)
[6]
  IC50: > 20 µM (inactive)

## CCN(CC)c1ccc(NC(=O)c2cccnc2)cc1
[4]
  AC50: 0.327 µM (active)
[12]
  IC50: 13.5 µM (active)

## O=C(CCCn1c(=S)[nH]c2ccsc2c1=O)NCCc1ccccc1
[6]
  IC50: > 20 µM (inactive)

## O=C(NCC(c1ccco1)N1CCc2ccccc21)c1ccccc1 (centres undefined)
[4]
  AC50: 1.21 µM (active)

## O=C(NNC(=O)c1ccccc1O)c1ccco1
[1]
  EC50: 19.4 µM (active)
[2]
  EC50: 24 µM (active)

## Clc1ccc2nc(N3CCCCC3)[nH]c2c1
[4]
  AC50: 4.04 µM (active)

## Cc1ccc(S(=O)(=O)N2CCOCC2)cc1NC(=O)CN(C)C1CCS(=O)(=O)C1 (centres undefined)
[1]
  EC50: > 300 µM (not active)
[2]
  EC50: > 300 µM (not active)

## Cc1ccc(S(=O)(=O)Nc2nc(C)cc(N/N=C/c3ccc(O)cc3)n2)cc1
[12]
  IC50: 10.6 µM (active)

## CN1CCCc2cc3c(C(F)(F)F)cc(=O)oc3nc21
[1]
  EC50: 25.7 µM (inconclusive)
[2]
  EC50: 24.9 µM (active)

## O=C(NCC(c1cccnc1)N1CCN(c2ccc(F)cc2)CC1)c1ccco1 (centres undefined)
[4]
  AC50: 4.66 µM (active)
[13]
  EC50: 0.46 µM (active)
[14]
  EC50: > 60 µM (inconclusive)

## O=C(NCc1ccccn1)c1ccc2c(c1)N(Cc1ccccc1)CCS2
[4]
  AC50: 0.511 µM (active)

## O=C(Nc1ccccc1N1CCCC1)c1ccc(N2CCCC2=O)cc1
[4]
  AC50: 1.55 µM (active)

## COc1cc(/C=N/N(C)C)ccc1OC(=O)c1cccs1
[15]
  IC50: 24.2 µM (active)

## Cc1cc(C)cc(OC(=O)CCN2C(=O)c3ccccc3C2=O)c1
[15]
  IC50: > 50 µM (active)

## N#CC1=C(N)OC2=C(C(=O)CCC2)C12C(=O)N1CCCc3cccc2c31 (centres undefined)
[1]
  EC50: > 300 µM (not active)
[2]
  EC50: > 300 µM (not active)

## COc1cc(C(=O)Nc2ccc(O)cc2)ccc1OC(C)=O
[12]
  IC50: 6.12 µM (active)

## O=C(CCN1C(=O)C2CC=C(Cl)CC2C1=O)N1CCCCC1 (centres undefined)
[1]
  EC50: 18.1 µM (active)
[2]
  EC50: 29.5 µM (active)

## Cc1nnc(N/N=C/c2ccc(Br)cc2)n1N
[15]
  IC50: 2.75 µM (active)

## O=C(CN1CCOCC1)N/N=C/c1ccc(-c2ccc(Br)cc2)o1
[15]
  IC50: > 50 µM (active)

## COc1cc(/C=C2\NC(=S)N(C)C2=O)ccc1O
[12]
  IC50: 3.22 µM (active)

## Cc1cc2c(Nc3ccc(O)cc3)ncnc2s1
[12]
  IC50: 5.5 µM (active)

## CCc1cc(SC#N)cc(C)c1NC(=O)CCl
[16]
  IC50: > 66 µM (inactive)
[17]
  AC50: 5.76 µM (active)
[18]
  IC50: > 66 µM (inactive)
[12]
  IC50: > 100 µM (active)

## Cc1sc(/C=C2\C(=O)ON=C2c2ccccc2)cc1Br
[1]
  EC50: 7.46 µM (inconclusive)
[2]
  EC50: 24.1 µM (inconclusive)
